Where two headings read alike, the source gives them in different places. Non-standard residues stand in square brackets, D forms with d. Residues, ends and D or L forms follow the SMILES beside them. *: point of attachment. DOTA = O=C(O)CN1CCN(CC(=O)O)CCN(CC(=O)*)CCN(CC(=O)O)CC1; 1Nal = N[C@@H](Cc1cccc2ccccc12)C(=O)O; NMeNle = CCCC[C@H](NC)C(=O)O

Data set [1] is described as follows: Octanol/PBS distribution coefficient (logD7.4). Type of data set: physicochemical. The conditions noted are these: pH 7.4. How it is done:
(§1) The stability studies with the ^177Lu-labeled peptide analogs were carried out at a concentration of 0.5 nmol peptide/mL in fresh human serum (n = 2) for up to 24 h. A mixture of 0.05 nmol/mL of the radiolabeled peptides in PBS and octanol (1/1, v/v) was used to evaluate the octanol/PBS distribution coefficient (logD7.4; n = 8). To determine the protein binding in human serum by Sephadex G-50 size-exclusion chromatography (GE Healthcare Illustra, Little Chalfont, UK), a 25 µL serum sample was used for different time points after incubation. All steps were performed according to previously published protocols.

The next data set concerns human serum proteins. The experiment in a line: Protein binding in human serum by Sephadex G-50 size-exclusion chromatography. Type of data set: in vitro ADME. How it is done:
as §1
(In general: Size exclusion chromatography separates by hydrodynamic size, large species first.)

Data set [2] in a line: Biodistribution 4 h p.i. in A431-CCK2R/A431-mock xenografted BALB/c nude mice. Type of data set: in vivo. The following applies: female, BALB/c nude, mouse, in vivo, iv, 20 pmol, total radioactivity. How it is done: (§2) Then, after 7–11 days, when visible tumor xenografts were formed, groups of 5 mice were injected intravenously via a lateral tail vein with ~0.5 MBq of radiolabeled peptide, corresponding to 20 pmol of peptide, in a total volume of ~150 µL in PBS/0.5% BSA. Using an additional mouse per group, a blocking study was performed by co-injecting a 1000-fold molar excess of the respective peptide analog (20 nmol) together with the radiolabeled peptide. For quantification, a 1:1, 1:10 and 1:50 standard was prepared using aliquots of the injection solution mixed with PBS/0.5% BSA. Mice were euthanized by cervical dislocation 4 h after injection. Subsequently, a blood sample was collected, and different tissues were dissected. All samples, as well as the rest of the body were weighed, and the activity measured in the γ-counter together with the standard. Results were expressed as percentage of injected activity per gram of tissue (%IA/g).

Data set [3] can be described thus: Biodistribution blocking experiment with 1000-fold excess of non-radiolabeled peptide. In kind it is in vivo, mice. The following applies: female, BALB/c nude, mouse, in vivo, iv, total radioactivity, blocking. How it is done: as §2
The next data set addresses T1, CCK2R (Homo sapiens, UniProt P32239).
T1 construct: expressed in transfected cells; host or cells: A431 human epidermoid carcinoma cells (A431-CCK2R, from Dr. Luigi Aloj)
T1 sequence (P32239 1-447): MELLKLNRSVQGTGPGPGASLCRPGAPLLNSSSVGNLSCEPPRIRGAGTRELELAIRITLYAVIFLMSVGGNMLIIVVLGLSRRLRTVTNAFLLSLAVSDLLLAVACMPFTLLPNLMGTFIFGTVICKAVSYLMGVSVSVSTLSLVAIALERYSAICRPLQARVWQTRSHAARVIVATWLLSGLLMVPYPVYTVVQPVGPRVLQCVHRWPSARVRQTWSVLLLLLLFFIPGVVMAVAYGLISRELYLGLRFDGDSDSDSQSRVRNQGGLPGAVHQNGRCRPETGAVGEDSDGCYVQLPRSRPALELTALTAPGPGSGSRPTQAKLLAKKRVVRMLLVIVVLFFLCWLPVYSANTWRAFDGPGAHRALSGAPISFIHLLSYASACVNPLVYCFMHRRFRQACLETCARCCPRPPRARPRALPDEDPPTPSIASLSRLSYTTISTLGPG
The experiment in a line: Competition assay against [125I][3-iodo-Tyr12,Leu15]gastrin-I on A431-CCK2R cells. In kind it is binding.

As to `CCCC[C@@H](C(=O)N[C@@H](CC(=O)O)C(=O)N[C@@H](Cc1cccc2ccccc12)C(N)=O)N(C)C(=O)[C@H](Cc1c[nH]c2ccccc12)NC(=O)CNC(=O)[C@H](Cc1ccc(O)cc1)NC(=O)[C@H](C)NC(=O)[C@@H](CCC(=O)O)NC(=O)[C@@H](CCC(=O)O)NC(=O)[C@@H](CCC(=O)O)NC(=O)[C@@H](CCC(=O)O)NC(=O)[C@@H](CCC(=O)O)NC(=O)[C@@H](CCC(=O)O)NC(=O)CN1CCN(CC(=O)O)CCN(CC(=O)O)CCN(CC(=O)O)CC1` [[^177Lu]Lu-1, metal not drawn] ({DOTA}-[dE][dE][dE][dE][dE][dE]AYGW[NMeNle]D[1Nal]-NH2), the logD – broadly, the decadic logarithm of the distribution of all forms, ionised or not, between an organic phase and buffer at a given pH – in data set [1] is -4.18 ± 0.24. In addition, the “change in binding to human serum proteins compared to [177Lu]Lu-DOTA-MGS5” value in the data set with human serum proteins is “increased by a factor of two”. The tissue uptake (in general, the share of the injected amount in each gram of the tissue) at 4 h in data set [2] (uptake in A431-CCK2R xenografts) worked out at 22.2 ± 6.23 %ID/g; in data set [2] (uptake in A431-mock xenografts), 0.14 ± 0.04 %ID/g; in data set [2] (uptake in blood), 0.02 %ID/g; in data set [2] (uptake in femur), 0.21 ± 0.05 %ID/g; in data set [2] (uptake in heart) it was 0.06 ± 0.01 %ID/g; in data set [2] (uptake in intestine), 0.42 ± 0.07 %ID/g. For the same compound, the tissue uptake at 4 h stood at 21.6 ± 2.11 %ID/g in data set [2] (uptake in kidneys); 2.48 ± 0.39 %ID/g in data set [2] (uptake in liver); 0.12 ± 0.04 %ID/g in data set [2] (uptake in lung); 0.04 ± 0.02 %ID/g in data set [2] (uptake in muscle); 1.25 ± 0.27 %ID/g in data set [2] (uptake in pancreas); 1.86 ± 0.62 %ID/g in data set [2] (uptake in spleen). Moreover, the tissue uptake at 4 h worked out at 4.77 ± 1.1 %ID/g in data set [2] (uptake in stomach); 0.45 %ID/g in data set [3] (uptake in A431-CCK2R xenograft); 0.12 %ID/g in data set [3] (uptake in A431-mock xenograft); 0.03 %ID/g in data set [3] (uptake in blood); 0.18 %ID/g in data set [3] (uptake in femur); 0.05 %ID/g in data set [3] (uptake in heart). The values for the tissue uptake at 4 h in data set [3] (uptake in lung), in data set [3] (uptake in pancreas) and in data set [3] (uptake in stomach) were 0.06 %ID/g, 0.05 %ID/g and 0.06 %ID/g, respectively.

Turning to `CCCC[C@@H](C(=O)N[C@@H](CC(=O)O)C(=O)N[C@@H](Cc1cccc2ccccc12)C(N)=O)N(C)C(=O)[C@H](Cc1c[nH]c2ccccc12)NC(=O)CNC(=O)[C@H](Cc1ccc(O)cc1)NC(=O)[C@H](C)NC(=O)[C@@H](CCC(=O)O)NC(=O)[C@@H](CCC(=O)O)NC(=O)[C@@H](CCC(=O)O)NC(=O)[C@@H](CCC(=O)O)NC(=O)[C@@H](CCC(=O)O)NC(=O)[C@@H](CCC(=O)O)NC(=O)CN1CCN(CC(=O)O)CCN(CC(=O)O)CCN(CC(=O)O)CC1` [Peptide 1, DOTA-(DGlu)6-Ala-Tyr-Gly-Trp-(N-Me)Nle-Asp-1Nal-NH2] ({DOTA}-[dE][dE][dE][dE][dE][dE]AYGW[NMeNle]D[1Nal]-NH2), on CCK2R, the IC50 (commonly the concentration at which inhibition is half-maximal) amounted to 0.18 ± 0.02 nM.

On to `CCCC[C@@H](C(=O)N[C@@H](CC(=O)O)C(=O)N[C@@H](Cc1cccc2ccccc12)C(N)=O)N(C)C(=O)[C@H](Cc1c[nH]c2ccccc12)NC(=O)CCNC(=O)CC(O)CNC(=O)CC(O)CNC(=O)CN1CCN(CC(=O)O)CCN(CC(=O)O)CCN(CC(=O)O)CC1` (stereo partly drawn) [Peptide 2, DOTA-(GABOB)2-βAla-Trp-(N-Me)Nle-Asp-1Nal-NH2], for which the IC50 on CCK2R (A431-CCK2R cells, 1 h room temperature, n = 3, read-out: IC50) turned out to be 0.24 nM.

(Values after paper PMC10058949, “Effect of N-Terminal Peptide Modifications on In Vitro and In Vivo Properties of ^177Lu-Labeled Peptide Analogs Targeting CCK2R” (Pharmaceutics, 2023).)
